According to patent publication US20250163119A1, “COMPOUNDS FOR THE TREATMENT OF DIABETES OR OBESITY” (Eli Lilly and Company, priority 2023, published 2025):
“And” between values parts separate entries of the source, which are not always exact repeats. Equal entries are not always repeated. Where two headings read alike, the source gives them in different places. *1 amine or outer side, *2 acyl side, *3 side chain or, on linkers, in order; H or OH if unused. Where a SMILES comes first, the peptide text is derived from it. Side-chain parts run from the residue outwards. [ ]: non-standard residue; d: D form. The star is where a group is joined. C20 diacid = O=C(O)CCCCCCCCCCCCCCCCCCC(=O)*; γGlu = O=C(O)[C@H](CCC(=O)[*:2])N[*:1]; αMeL = CC(C)C[C@](C)(N)C(=O)O; AEEA = NCCOCCOCC(=O)O; Aib = CC(C)(N)C(=O)O

What was measured:
[1] = target: T1, human CRHR2 (Homo sapiens, UniProt Q13324); experiment: Human CRHR2 cAMP assay (HTRF) in HEK293 cells stably expressing human CRHR2; assay type: cell-based; conditions: HEK293 cells overexpressing human CRHR2; relative EC50, maximum 10 nM human UCN2; mean ± SE; read-out: hCRHR2 cAMP EC50 (pM, ± SE)
T1 construct: expressed in transfected cells
T1 sequence (Q13324 1-438 isoform Q13324-2): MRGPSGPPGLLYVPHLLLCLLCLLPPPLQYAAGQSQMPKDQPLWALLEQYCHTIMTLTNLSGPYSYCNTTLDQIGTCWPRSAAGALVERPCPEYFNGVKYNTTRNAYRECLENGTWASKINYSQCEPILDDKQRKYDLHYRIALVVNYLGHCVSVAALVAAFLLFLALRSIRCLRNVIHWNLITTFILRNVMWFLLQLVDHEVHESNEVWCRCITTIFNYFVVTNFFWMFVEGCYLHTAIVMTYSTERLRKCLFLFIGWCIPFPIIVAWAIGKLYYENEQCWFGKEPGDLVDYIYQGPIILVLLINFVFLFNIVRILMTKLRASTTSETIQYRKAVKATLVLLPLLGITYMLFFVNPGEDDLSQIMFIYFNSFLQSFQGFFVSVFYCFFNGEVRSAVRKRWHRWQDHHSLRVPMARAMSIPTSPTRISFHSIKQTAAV
Procedure, shortened: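 Stably expressing HEK293 clones received peptide concentration series in phosphodiesterase-inhibited buffer (0.25 mM IBMX, pH 7.4). After receptor-specific incubation (CRHR1 1 h at 37° C; CRHR2 30 min at room temperature), cells were lysed with HTRF cAMP reagents for 60 min and the 665/620 nm ratio recorded.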

[2] = Pharmacokinetics in Sprague Dawley rats, single subcutaneous or intravenous dose (incl. 10, 30, 100 nmol/kg dose response); assay type: in vivo; conditions: for Tmax: read-out: Tmax
[3] = male, Sprague Dawley, rat, plasma, iv, 196 nmol/kg, single intravenous dose 196 nmol/kg, individual animal
[4] = male, Sprague Dawley, rat, plasma, iv, 196 nmol/kg, single intravenous dose 196 nmol/kg, mean
[5] = male, Sprague Dawley, rat, plasma, sc, 196 nmol/kg, single subcutaneous dose 196 nmol/kg, individual animal
[6] = male, Sprague Dawley, rat, plasma, sc, 196 nmol/kg, single subcutaneous dose 196 nmol/kg, mean
[7] = single intravenous dose 196 nmol/kg, male Sprague Dawley rats, individual animal
[8] = single subcutaneous dose 196 nmol/kg, male Sprague Dawley rats, individual animal

For CC[C@H](C)[C@H](NC(C)=O)C(=O)N[C@H](C(=O)N[C@H](C(=O)N[C@@H](CO)C(=O)N[C@@](C)(CC(C)C)C(=O)N[C@@H](CC(=O)O)C(=O)N[C@@H](C(=O)N1CCC[C@H]1C(=O)N[C@H](C(=O)NC(C)(C)C(=O)N[C@@](C)(CC(C)C)C(=O)N[C@@H](CC(C)C)C(=O)N[C@@H](CCC(N)=O)C(=O)N[C@H](C(=O)N[C@@H](CCCCN)C(=O)N[C@@H](CC(C)C)C(=O)N[C@@H](CCC(=O)O)C(=O)N[C@@H](CCC(N)=O)C(=O)N[C@@H](CCC(=O)O)C(=O)N[C@@H](CCCNC(=N)N)C(=O)N[C@@H](C)C(=O)N[C@@H](CCC(=O)O)C(=O)N[C@@H](CCCCN)C(=O)N[C@@H](C)C(=O)N[C@@H](CCCNC(=N)N)C(=O)N[C@@H](CCC(N)=O)C(=O)N[C@@H](CCC(N)=O)C(=O)N[C@@H](C)C(=O)N[C@@H](CCCCNC(=O)COCCOCCNC(=O)COCCOCCNC(=O)CC[C@H](NC(=O)CCCCCCCCCCCCCCCCCCC(=O)O)C(=O)O)C(=O)N[C@@H](CCC(=O)O)C(=O)N[C@@H](CC(N)=O)C(=O)N[C@H](C(=O)N[C@@H](CCC(=O)O)C(=O)N[C@H](C(=O)N[C@@H](CC(C)C)C(=O)N[C@@H](C)C(=O)N[C@@H](CCC(N)=O)C(=O)N[C@H](C(N)=O)C(C)C)[C@@H](C)CC)[C@@H](C)O)[C@@H](C)CC)[C@@H](C)O)C(C)C)[C@@H](C)O)C(C)C [SEQ ID NO: 41, Ac-IVTS αMeL D (D-Val) PT Aib αMeL LQIKLEQERAEKARQQAK((2-[2-(2-Amino-ethoxy)-ethoxy]-acetyl)2-γE-CO-(CH2)18-CO2H)ENTEILAQV-NH2] (Ac-IVTS[αMeL]D[dV]PT[Aib][αMeL]LQIKLEQERAEKARQQAK([AEEA-AEEA-γGlu-C20 diacid])ENTEILAQV-NH2), which EC50 [1] is on record?
The EC50 was 7 ± 0.9 pM.

And the clearance [2, 3]?
Its clearance is 3.91 mL/h/kg.

What about the half-life [2, 3] of the same compound?
The half-life was 48.4 h.

What about the clearance [2, 4] of the same compound?
Its clearance is 3.82 mL/h/kg.

And the half-life [2, 4]?
Its half-life is 45.7 h.

What about the half-life [2, 5] of the same compound?
Its half-life is 43.8 h.

And the CL/F ([2]; male, Sprague Dawley, rat, plasma, sc, 196 nmol/kg, single subcutaneous dose 196 nmol/kg, individual animal, read-out: CL/F (converted))?
The CL/F was 5.04 mL/h/kg.

And the Tmax [2, 5]?
Its Tmax is 24 h.

What about the half-life [2, 6] of the same compound?
The half-life was 39.3 h.

And the CL/F ([2]; male, Sprague Dawley, rat, plasma, sc, 196 nmol/kg, single subcutaneous dose 196 nmol/kg, mean, read-out: CL/F (converted))?
The CL/F was 4.47 mL/h/kg.

And the Tmax [2, 6]?
Its Tmax is 24 h.

What about the AUC0-inf ([2]; rat, plasma, sc, single subcutaneous dose 196 nmol/kg, male Sprague Dawley rats, mean, read-out: AUC0-inf) of the same compound?
Its AUC0-inf is 48.1 µM·h.

What about the Cmax ([2]; rat, plasma, sc, single subcutaneous dose 196 nmol/kg, male Sprague Dawley rats, mean, read-out: Cmax) of the same compound?
The Cmax was 550 nM.

What about the AUC0-inf ([2]; rat, plasma, single intravenous dose 196 nmol/kg, male Sprague Dawley rats, mean, read-out: AUC0-inf) of the same compound?
Its AUC0-inf is 52.1 µM·h.

And the C0 ([2]; rat, plasma, single intravenous dose 196 nmol/kg, male Sprague Dawley rats, mean, read-out: C0)?
Its C0 is 1190 nM.

What about the AUC0-inf [2, 7] of the same compound?
The AUC0-inf was 50.1 µM·h and 60.6 µM·h and 45.5 µM·h.

And the C0 [2, 7]?
The C0 was 1350 nM and 1620 nM and 586 nM.

And the CL [2, 7]?
The CL was 3.23 mL/h/kg and 4.31 mL/h/kg.

And the T1/2 [2, 7]?
Its T1/2 is 49.8 h and 39.0 h.

What about the AUC0-inf [2, 8] of the same compound?
The AUC0-inf was 43.1 µM·h and 56.2 µM·h and 45 µM·h.

What about the CL/F [2, 8] of the same compound?
The CL/F was 3.73 mL/h/kg and 4.63 mL/h/kg.

And the Cmax [2, 8]?
The Cmax was 467 nM and 645 nM and 539 nM.

What about the T1/2 [2, 8] of the same compound?
Its T1/2 is 36.5 h and 37.7 h.
